Assay results taken from patent US20160168118A1, “N-(5-QUINOLIN-6-YL)PYRIDIN-3-YL) BENZSULFAMIDE DERIVATIVES, PREPARATION METHOD AND THERAPEUTIC USE THEREOF” (SECOND MILITARY MEDICAL UNIVERSITY, PLA, priority 2012, published 2016).
In brackets after ≈: the same amount, converted by molar mass. Like-named read-outs stand apart in the source and are kept apart here.

Tests used:
[1] = tested on: MCF7; assay: NCI cytotoxicity test, MCF7; format: cell-based; settings: Homo sapiens
Excerpt: (§1) Cytotoxicity Test of Compound 9, 10 and 17 on 60 Kinds of Human Cancer Cell Lines from the US National Cancer Institute

[2] = target: PI3K delta (Homo sapiens, UniProt O00329); assay: Kinase-Glo Luminescent Kinase Assay, PI3K delta; format: biochemical
[3] = target: mTOR (Homo sapiens, UniProt P42345); assay: Lance Ultra Assay, mTOR; format: biochemical
[4] = tested on: HCT116 (human colon cancer cells); assay: MTT assay, HCT116; format: cell-based; settings: HCT-116, 72 h
[5] = tested on: A549; assay: NCI cytotoxicity test, A549; format: cell-based; settings: Homo sapiens
Excerpt: as §1

[6] = tested on: SF539; assay: NCI cytotoxicity test, SF539; format: cell-based; settings: Homo sapiens, SF-539
Excerpt: as §1

[7] = tested on: U87MG (human brain star glioblastoma); assay: MTT assay, U87MG; format: cell-based; settings: U-87 MG, 72 h
Experimental: (§2) 1. Sample preparation: After dissolved with DMSO (Merck), PBS (−) was added to make 1000 μg/ml solution or a uniform suspension, and then diluted with PBS (−) containing the DMSO. Doxorubicin (DOX) was used as the positive control drug.
(§3) 2. Cell Line • 1) A549 (human lung cancer cells); 2) HCT116 (human colon cancer cells); 3) HepG2 (human hepatoma cells); 4) ZR-75-30 (human breast cancer cells); 5) U87MG (human brain star glioblastoma)
(§4) DMEM+5-10% FBS+double resistant
(§5) MTT assay. 100 μl cell suspension was added at a concentration of 4˜5×10^4 cells/ml to each well of a 96-well plate, and was set at 37° C., 5% CO2 in the incubator. After 24 h, the sample solution was added, 10 μl/hole, double wells were set, 37° C., acting for 72 h at 5% CO2. […] of 5 mg/ml was added to each well, the dissolving liquid was added after acted for 4 h, 100 μl/hole, kept in the incubator, and read 570 nm OD with MK-2 automatic microplate reader after dissolution.

[8] = tested on: A549 (human lung cancer cells); assay: MTT assay, A549; format: cell-based; settings: 72 h
Experimental: as §2, §3, §4, §5

[9] = tested on: 60 kinds of human cancer cell lines; assay: Cytotoxicity test on 60 kinds of human cancer cell lines from the US National Cancer Institute; format: cell-based
Excerpt: as §1

[10] = target: PI3Kα (Homo sapiens, UniProt P42336); assay: Kinase-Glo Luminescent Kinase Assay, PI3Kα; format: biochemical
[11] = tested on: OVCAR3; assay: NCI cytotoxicity test, OVCAR3; format: cell-based; settings: Homo sapiens, OVCAR-3
Excerpt: as §1

[12] = tested on: PC3; assay: NCI cytotoxicity test, PC3; format: cell-based; settings: Homo sapiens, PC-3
Excerpt: as §1

[13] = target: PI3Kγ (Homo sapiens, UniProt P48736); assay: ADP-Glo Luminescent Kinase Assay, PI3Kγ; format: biochemical; settings: read-out: IC50 on PI3K gamma
[14] = tested on: COLO205; assay: NCI cytotoxicity test, COLO205; format: cell-based; settings: Homo sapiens, COLO 205
Excerpt: as §1

[15] = tested on: SN12C; assay: NCI cytotoxicity test, SN12C; format: cell-based; settings: Homo sapiens
Excerpt: as §1

[16] = tested on: five human tumor cells; assay: MTT assay, five human tumor cells (summary in words); format: cell-based; settings: A549, HCT116, HepG2, ZR-75-30, U87MG
Experimental: as §2, §3, §4, §5

[17] = target: PI3Kβ (Homo sapiens, UniProt P42338); assay: ADP-Glo Luminescent Kinase Assay, PI3Kβ; format: biochemical; settings: read-out: IC50 on PI3K beta
[18] = tested on: human lung carcinoma A549 xenografts; assay: In vivo efficacy on human lung carcinoma A549 xenografts in nude mice; set-up: species or system BALB/C nude mice; settings: ig, GSK2126458 3 mg/kg, compound 9 10 mg/kg
Excerpt: Strain: BALB/C nude mice (SPF grade), Source: Shanghai Slac laboratory animal limited liability company, the production license number: SCXK (Shanghai) 2007-0005, the using license number: SYXK (Shanghai) 2009-0068, gender: male, weight: 18-20 g, the number of animals per group: 6.
A549 solid tumors which were well-grown were taken, cut to uniform bits of about 3 mm size under aseptic condition, every bit was inoculated to each mouse subcutaneously in the right armpit with trocar, and randomly divided into three groups, each treatment was:
1) Control (saline), gavage, the dose 25 ml/kg, 14 days;
3) Compound 9, gavage, the dose 10 mg/kg, 14 days;
Regrouped according to tumor size on the 13th day after inoculation, the animals of which tumor size is too large and too small were eliminated, the average tumor volume of each group are basically the same. Administration was carried out according to the above regimen; the dosing volume was 0.5 ml/20 g body weight. The axis (a), shorter diameter (b) of tumor was measured 2 times a week with an electronic digital caliper, calculate formula of tumor volume (tumor volume, TV) is as follows: TV=1/2×a×b2, calculate formula of relative tumor volume (relative tumor volume, RTV), is as follows: RTV=Vt/Vo, wherein Vo is the tumor volume measured at the time when dividing cages (i.e. dl), Vt is the tumor volume measured each time. […] T test was conducted. Animals were sacrificed 30 days after inoculation, dissected and the tumor mass were taken, tumor weight was measured.

[19] = Solubility test in buffer solution at pH=1; format: physicochemical; settings: pH=1 buffer solution, simulated gastric fluid, thermodynamic from solid; buffer solution pH=1
Experimental: Compound 9 1.02 mg was precisely weighed and placed in 1.5 mL of EP tube, and 10 uL pH=1 buffer solution was added, vortexed for 30S and ultrasonic for 20 min. There was a lot of visible turbidity after that.
20 uL buffer was added and ultrasounded and the solution was found still turbid. Turbidity reduced after the solution was diluted to 1 mL and vortexed, while there still exist residual after diluted to 2 mL.

PI3Kγ, sequence (P48736 whole entry, species assumed): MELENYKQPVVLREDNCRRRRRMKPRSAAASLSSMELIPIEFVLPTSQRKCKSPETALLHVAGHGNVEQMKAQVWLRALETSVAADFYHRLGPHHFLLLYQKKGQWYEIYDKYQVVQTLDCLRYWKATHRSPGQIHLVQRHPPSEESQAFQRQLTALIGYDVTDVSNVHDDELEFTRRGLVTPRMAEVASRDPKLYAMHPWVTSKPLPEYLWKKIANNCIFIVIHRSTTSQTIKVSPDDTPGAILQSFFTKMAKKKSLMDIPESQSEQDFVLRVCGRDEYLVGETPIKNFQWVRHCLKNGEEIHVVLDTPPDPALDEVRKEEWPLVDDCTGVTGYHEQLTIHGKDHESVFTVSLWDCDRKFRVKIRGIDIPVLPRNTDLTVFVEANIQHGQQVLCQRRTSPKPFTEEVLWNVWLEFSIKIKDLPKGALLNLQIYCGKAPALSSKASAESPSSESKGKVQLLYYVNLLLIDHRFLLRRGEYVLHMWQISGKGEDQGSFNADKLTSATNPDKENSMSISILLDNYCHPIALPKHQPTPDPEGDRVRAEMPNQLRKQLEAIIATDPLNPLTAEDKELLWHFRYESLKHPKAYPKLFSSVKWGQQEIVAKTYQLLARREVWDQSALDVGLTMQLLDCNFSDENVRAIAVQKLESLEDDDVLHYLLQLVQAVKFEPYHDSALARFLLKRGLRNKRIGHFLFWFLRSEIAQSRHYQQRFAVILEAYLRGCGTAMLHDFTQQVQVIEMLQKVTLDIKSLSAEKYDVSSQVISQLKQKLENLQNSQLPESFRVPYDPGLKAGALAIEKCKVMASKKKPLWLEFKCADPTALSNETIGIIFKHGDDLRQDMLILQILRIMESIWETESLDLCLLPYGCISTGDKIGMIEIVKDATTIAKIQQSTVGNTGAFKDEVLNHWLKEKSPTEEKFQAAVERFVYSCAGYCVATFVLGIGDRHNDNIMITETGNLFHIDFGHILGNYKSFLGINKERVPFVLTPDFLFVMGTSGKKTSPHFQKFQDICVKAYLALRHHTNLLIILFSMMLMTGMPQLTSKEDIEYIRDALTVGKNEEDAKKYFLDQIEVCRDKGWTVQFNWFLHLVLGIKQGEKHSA
PI3Kα, sequence (P42336 whole entry, species assumed): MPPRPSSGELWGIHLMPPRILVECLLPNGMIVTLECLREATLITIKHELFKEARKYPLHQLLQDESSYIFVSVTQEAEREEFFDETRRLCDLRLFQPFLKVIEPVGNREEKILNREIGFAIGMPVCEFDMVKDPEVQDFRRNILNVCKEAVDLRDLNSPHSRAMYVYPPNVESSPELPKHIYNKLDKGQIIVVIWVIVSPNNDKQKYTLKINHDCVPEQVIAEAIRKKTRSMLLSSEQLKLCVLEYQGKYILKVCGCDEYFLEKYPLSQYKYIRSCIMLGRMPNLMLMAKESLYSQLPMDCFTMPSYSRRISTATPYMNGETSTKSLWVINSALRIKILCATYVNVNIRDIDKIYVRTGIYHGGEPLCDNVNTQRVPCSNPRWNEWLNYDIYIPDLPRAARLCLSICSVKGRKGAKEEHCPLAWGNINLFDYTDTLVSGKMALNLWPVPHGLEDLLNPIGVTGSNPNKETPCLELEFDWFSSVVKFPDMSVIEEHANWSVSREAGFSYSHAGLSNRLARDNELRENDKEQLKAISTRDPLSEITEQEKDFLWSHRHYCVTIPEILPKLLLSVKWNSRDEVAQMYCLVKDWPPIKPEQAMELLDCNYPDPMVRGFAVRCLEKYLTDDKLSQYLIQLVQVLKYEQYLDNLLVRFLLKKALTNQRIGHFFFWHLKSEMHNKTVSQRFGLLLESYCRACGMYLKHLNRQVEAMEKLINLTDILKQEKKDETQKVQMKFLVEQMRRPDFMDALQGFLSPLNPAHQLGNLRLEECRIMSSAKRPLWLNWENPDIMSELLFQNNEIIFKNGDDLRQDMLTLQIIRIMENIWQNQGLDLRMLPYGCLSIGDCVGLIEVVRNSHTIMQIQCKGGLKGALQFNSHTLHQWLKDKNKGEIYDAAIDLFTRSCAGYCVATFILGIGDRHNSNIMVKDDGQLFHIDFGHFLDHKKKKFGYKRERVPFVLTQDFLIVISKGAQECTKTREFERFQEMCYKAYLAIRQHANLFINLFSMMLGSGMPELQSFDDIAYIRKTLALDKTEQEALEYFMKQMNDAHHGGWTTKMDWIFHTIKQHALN
PI3Kα, sequence (P27986 whole entry partner, species assumed): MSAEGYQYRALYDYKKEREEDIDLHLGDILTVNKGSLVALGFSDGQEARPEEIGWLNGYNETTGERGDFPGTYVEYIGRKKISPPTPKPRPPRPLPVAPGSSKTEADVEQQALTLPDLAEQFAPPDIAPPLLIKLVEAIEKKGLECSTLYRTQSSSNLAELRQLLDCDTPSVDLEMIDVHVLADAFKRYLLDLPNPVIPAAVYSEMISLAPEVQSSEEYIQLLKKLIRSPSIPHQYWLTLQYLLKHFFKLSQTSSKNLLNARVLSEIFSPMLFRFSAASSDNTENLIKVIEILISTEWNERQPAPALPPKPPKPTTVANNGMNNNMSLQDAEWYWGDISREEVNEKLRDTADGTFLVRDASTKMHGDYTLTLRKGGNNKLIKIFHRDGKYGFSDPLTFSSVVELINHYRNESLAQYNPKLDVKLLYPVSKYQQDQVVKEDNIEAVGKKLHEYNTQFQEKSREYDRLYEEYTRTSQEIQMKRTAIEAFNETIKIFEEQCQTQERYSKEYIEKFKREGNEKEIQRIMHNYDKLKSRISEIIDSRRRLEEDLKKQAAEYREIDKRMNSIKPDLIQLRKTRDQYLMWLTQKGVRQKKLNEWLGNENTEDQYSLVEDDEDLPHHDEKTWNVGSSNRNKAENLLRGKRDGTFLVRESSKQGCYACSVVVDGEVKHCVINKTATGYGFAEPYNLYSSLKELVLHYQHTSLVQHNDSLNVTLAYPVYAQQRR
PI3K delta, sequence (O00329 whole entry): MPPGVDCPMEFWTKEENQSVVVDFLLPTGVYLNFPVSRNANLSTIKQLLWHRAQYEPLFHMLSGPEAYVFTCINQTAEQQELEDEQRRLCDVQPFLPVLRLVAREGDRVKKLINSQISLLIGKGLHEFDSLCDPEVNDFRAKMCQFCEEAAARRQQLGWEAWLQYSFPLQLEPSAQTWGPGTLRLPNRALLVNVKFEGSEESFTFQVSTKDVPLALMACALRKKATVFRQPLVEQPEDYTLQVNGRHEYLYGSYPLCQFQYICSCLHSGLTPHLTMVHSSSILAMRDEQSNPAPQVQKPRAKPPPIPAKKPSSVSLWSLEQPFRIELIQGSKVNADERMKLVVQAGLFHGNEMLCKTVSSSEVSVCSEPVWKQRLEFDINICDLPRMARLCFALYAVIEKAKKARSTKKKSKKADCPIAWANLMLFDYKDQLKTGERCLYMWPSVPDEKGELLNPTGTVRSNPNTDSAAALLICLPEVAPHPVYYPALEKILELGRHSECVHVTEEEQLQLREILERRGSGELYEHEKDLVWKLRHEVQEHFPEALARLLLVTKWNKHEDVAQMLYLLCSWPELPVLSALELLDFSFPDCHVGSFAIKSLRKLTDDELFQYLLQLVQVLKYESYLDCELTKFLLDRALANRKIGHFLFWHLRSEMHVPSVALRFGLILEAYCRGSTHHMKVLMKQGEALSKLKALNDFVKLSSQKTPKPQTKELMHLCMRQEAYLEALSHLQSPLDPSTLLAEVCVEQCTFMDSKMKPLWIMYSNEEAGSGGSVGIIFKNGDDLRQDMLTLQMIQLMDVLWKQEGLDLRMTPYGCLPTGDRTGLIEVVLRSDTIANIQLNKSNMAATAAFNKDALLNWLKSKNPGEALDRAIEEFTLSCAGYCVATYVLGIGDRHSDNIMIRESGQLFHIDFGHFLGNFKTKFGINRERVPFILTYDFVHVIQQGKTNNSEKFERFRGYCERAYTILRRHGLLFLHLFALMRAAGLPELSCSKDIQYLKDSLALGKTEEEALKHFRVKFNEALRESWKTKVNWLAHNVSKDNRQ
PI3K delta, sequence (P27986 whole entry partner): as the sequence (P27986 whole entry partner, species assumed) above
PI3Kβ, sequence (P42338 whole entry, species assumed): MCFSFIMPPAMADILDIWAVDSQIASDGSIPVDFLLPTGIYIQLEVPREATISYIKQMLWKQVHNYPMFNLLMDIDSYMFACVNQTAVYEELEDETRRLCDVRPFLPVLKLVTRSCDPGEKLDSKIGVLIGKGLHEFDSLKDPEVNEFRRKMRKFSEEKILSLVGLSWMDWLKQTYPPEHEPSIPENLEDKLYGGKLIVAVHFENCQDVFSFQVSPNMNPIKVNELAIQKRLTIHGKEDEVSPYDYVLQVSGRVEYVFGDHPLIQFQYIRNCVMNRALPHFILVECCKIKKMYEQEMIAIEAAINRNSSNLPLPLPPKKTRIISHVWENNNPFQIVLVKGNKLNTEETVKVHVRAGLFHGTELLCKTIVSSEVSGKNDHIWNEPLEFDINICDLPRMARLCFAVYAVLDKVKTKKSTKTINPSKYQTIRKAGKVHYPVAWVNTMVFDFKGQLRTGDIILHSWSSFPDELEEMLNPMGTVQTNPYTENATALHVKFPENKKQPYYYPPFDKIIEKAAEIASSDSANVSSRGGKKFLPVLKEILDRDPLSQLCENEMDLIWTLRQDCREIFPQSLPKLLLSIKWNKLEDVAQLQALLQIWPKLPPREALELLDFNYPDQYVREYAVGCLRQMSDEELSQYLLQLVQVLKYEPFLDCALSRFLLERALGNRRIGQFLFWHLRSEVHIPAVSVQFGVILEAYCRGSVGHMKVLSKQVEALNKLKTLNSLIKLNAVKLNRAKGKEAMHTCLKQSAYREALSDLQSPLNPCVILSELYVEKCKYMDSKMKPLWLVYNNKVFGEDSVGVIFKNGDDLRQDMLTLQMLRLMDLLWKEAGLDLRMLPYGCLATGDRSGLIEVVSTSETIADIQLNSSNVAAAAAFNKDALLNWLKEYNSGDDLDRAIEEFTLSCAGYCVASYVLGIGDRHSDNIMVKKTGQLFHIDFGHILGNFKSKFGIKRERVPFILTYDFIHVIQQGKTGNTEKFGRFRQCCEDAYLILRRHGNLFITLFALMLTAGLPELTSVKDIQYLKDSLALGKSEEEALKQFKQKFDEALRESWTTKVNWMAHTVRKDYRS
PI3Kβ, sequence (P27986 whole entry partner, species assumed): as the sequence (P27986 whole entry partner, species assumed) above

## COc1ncc(-c2ccc3nccc(-c4ccc(CN(C)CCO)cc4)c3c2)cc1NS(=O)(=O)c1ccc(F)cc1F [Compound 17, N-(5-(4-(4-(((2-hydroxyethyl)(methyl)amino)methyl)phenyl)quinolin-6-yl)-2-methoxypyridine-3-yl)-2,4-difluorobenzenesulfonamide]
[1]
  GI50: < 10 nM
[2]
  IC50: 3.4 nM
[3]
  IC50: 2.2 nM
[4]
  IC50: 2.8 ng/mL (≈ 0.00474 µM)
[5]
  GI50: < 10 nM
[6]
  GI50: < 10 nM
[7]
  IC50: 0.092 µg/mL (≈ 0.156 µM)
[8]
  IC50: 0.012 µg/mL (≈ 0.0203 µM)
[9]; on the 38 tumor cell lines, read-out: average half growth inhibitory concentration (GI50)
  GI50: < 10 nM
[9]; on the 60 kinds of tumor cells, read-out: Average GI50
  GI50: 15.8 nM
[10]
  IC50: 0.59 nM
[11]
  GI50: < 10 nM
[12]
  GI50: < 10 nM
other
  melting point: 84 to 85 °C
[13]
  IC50: 1.1 nM
[14]
  GI50: < 10 nM
[15]
  GI50: < 10 nM
[16]
  in vitro proliferation inhibition (in words): high in vitro proliferation inhibition
[17]
  IC50: 1.1 nM

## COc1ncc(-c2ccc3nccc(-c4ccnnc4)c3c2)cc1NS(=O)(=O)c1ccc(F)cc1F [GSK2126458, reference compound]
[7]
  IC50: 0.537 µg/mL (≈ 1.06 µM)
[8]
  IC50: 0.014 µg/mL (≈ 0.0277 µM)
[18]
  Tumor Inhibition rate %: 65.93%
[18]; at end
  Animal wight (g) (tumor removed): 21.41 ± 1.49 g
[18]; d18
  RTV (d18) x ± SD: 6.91 ± 1.97
[19]
  solubility at 20 min: 200 µg/mL (≈ 396 µM)
[13]
  IC50: 0.61 nM
